Assay results as given in ChEMBL document CHEMBL1201862, “PubChem BioAssay data set” (2004).
The source made the active and inactive calls.

Key:
[1] = target: T1, Microphthalmia-associated transcription factor (Homo sapiens, UniProt O75030); assay: TRPM1 promoter luciferase signal decrease, dose response, MITF inhibitor project, cell-based, SK-MEL-5, cherry-picked, set 3 (AID 493073); format: functional
T1 sequence (O75030 whole entry): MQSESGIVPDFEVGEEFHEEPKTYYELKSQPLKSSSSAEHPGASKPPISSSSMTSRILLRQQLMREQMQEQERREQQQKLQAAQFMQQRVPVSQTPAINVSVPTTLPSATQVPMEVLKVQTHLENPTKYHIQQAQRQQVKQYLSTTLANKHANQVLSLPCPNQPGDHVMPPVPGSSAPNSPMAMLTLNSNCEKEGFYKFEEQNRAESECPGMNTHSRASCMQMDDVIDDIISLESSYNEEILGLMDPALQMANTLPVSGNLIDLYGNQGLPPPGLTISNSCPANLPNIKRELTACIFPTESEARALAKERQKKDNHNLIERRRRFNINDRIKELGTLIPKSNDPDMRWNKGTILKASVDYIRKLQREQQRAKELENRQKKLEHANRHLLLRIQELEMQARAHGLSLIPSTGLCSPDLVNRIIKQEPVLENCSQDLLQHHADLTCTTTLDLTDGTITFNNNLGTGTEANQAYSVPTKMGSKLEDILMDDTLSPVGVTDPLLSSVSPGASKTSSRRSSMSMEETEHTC

A-375 = assay: MITF: Counter assay: A375 proliferation Measured in Cell-Based System Using Plate Reader - 2084-03_Inhibitor_Dose_DryPowder_Activity. [Related pubchem assays (depositor defined):AID488944]; format: functional; conditions: Homo sapiens
Cytochrome P450 2D6 = Cytochrome P450 2D6 (Homo sapiens, UniProt P10635);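 further: CYP2D6 member of a cytochrome P450 panel assay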
Chain of Cytochrome P450 2D6 (P10635 whole entry): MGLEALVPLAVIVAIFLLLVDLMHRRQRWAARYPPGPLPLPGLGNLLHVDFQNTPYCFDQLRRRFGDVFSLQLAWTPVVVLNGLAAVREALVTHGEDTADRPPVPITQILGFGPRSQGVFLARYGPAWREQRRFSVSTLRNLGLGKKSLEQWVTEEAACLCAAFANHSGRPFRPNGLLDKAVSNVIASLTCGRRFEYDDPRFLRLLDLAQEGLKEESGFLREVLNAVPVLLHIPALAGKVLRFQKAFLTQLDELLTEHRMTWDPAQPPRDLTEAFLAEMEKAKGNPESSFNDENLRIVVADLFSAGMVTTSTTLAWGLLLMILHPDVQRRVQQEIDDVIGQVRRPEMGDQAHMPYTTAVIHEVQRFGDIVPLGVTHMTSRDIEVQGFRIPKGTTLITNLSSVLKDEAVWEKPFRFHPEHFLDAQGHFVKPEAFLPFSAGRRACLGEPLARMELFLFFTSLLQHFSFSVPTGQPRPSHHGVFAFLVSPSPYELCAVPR

Cytochrome P450 2C9 = Cytochrome P450 2C9 (Homo sapiens, UniProt P11712)
Chain of Cytochrome P450 2C9 (P11712 whole entry): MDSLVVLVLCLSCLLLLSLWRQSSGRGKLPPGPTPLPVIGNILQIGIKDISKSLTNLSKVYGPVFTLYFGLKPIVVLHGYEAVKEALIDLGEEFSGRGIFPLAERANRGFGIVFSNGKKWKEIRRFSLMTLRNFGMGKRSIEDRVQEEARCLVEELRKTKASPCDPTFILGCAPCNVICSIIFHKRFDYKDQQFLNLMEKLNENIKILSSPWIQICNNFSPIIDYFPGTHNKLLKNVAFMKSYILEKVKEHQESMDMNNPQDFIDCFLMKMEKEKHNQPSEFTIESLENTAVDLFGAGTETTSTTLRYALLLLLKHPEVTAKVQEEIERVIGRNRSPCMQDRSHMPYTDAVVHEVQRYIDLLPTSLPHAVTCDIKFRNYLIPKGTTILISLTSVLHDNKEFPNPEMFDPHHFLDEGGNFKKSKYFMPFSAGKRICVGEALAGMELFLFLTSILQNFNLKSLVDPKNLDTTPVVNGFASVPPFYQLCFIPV

Cytochrome P450 1A2 = target: T2, Cytochrome P450 1A2 (Homo sapiens, UniProt P05177);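 further: PubChem cytochrome P450 panel assay, CYP1A2 panel member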
T2 sequence (P05177 whole entry): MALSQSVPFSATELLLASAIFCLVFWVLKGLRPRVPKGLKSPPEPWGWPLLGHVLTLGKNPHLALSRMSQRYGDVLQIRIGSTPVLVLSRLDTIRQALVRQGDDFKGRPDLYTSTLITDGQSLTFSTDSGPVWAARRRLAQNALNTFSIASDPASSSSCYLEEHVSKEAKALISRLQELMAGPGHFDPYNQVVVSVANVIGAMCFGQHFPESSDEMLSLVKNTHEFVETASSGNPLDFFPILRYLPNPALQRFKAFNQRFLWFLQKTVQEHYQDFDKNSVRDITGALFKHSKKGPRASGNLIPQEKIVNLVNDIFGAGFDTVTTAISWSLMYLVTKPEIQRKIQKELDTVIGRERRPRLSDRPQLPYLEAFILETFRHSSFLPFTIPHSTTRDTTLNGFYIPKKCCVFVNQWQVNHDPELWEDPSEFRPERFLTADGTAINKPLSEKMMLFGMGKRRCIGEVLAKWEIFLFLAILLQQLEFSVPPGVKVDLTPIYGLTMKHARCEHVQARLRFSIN

[2] = THP-1 cell cytotoxicity, dose response, cytotoxicity control for Vif-APOBEC3G degradation inhibitor project, THP-1 cells (AID 1117359); format: functional; conditions: Human immunodeficiency virus 1, THP-1
Protein Tat = target: T3, Protein Tat (Human immunodeficiency virus type 1 group M subtype B (isolate HXB2)(HIV-1), UniProt P04608); format: functional;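 further: tat binding to TAR RNA read out by fluorescence polarization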
T3 sequence (P04608 whole entry): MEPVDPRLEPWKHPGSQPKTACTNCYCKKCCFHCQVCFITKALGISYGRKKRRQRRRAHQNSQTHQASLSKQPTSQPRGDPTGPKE

[3] = target: T4, Carboxy-terminal domain RNA polymerase II polypeptide A small phosphatase 1 (Homo sapiens, UniProt Q9GZU7); assay: inhibitors of CTDSP1, concentration-response testing, biochemical assay, absorbance-based, actives from ultra-high-throughput screening (AID 540297); format: functional
T4 sequence (Q9GZU7 whole entry): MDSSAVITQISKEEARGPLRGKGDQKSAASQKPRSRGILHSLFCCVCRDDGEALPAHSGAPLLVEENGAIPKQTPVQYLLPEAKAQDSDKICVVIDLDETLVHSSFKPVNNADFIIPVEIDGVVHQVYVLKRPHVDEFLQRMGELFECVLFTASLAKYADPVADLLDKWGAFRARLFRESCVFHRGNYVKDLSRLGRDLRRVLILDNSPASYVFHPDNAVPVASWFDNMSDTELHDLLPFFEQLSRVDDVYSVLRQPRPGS

[4] = target: T5, Ubiquitin-conjugating enzyme E2 N (Homo sapiens, UniProt P61088); format: functional
T5 sequence (P61088 whole entry): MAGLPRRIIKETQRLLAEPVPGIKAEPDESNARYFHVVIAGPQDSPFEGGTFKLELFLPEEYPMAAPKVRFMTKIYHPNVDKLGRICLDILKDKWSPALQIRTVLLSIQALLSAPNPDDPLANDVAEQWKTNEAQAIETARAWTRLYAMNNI

[5] = target: T6, DNA repair and recombination protein RAD54-like (Homo sapiens, UniProt Q92698); assay: inhibitors of human RAD54 branch migration, confirmation, biochemical, fluorescence, cherry-picked samples, dose series (AID 651657); format: functional
T6 sequence (Q92698 whole entry): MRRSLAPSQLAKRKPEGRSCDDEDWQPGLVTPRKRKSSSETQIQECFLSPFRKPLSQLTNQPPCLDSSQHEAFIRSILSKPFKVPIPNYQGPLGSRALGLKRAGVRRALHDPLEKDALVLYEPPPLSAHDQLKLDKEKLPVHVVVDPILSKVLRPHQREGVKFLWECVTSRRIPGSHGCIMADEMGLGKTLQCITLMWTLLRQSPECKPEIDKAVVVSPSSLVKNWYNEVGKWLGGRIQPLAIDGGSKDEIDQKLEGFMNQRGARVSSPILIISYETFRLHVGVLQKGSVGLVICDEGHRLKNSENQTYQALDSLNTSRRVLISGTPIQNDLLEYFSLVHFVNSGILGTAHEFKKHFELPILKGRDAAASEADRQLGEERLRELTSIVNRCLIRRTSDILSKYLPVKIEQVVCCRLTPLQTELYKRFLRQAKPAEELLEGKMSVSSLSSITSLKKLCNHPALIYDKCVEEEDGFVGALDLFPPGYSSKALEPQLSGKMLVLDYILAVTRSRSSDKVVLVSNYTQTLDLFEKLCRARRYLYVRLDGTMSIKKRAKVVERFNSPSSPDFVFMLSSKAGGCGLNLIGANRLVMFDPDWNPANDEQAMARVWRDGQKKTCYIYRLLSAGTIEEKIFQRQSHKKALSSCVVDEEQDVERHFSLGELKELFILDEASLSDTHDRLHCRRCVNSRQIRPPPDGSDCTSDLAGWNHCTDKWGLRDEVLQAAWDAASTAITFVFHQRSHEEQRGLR

Bcl-2-related protein A1 = target: T7, Bcl-2-related protein A1 (Mus musculus, UniProt Q07440); format: functional;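 further: confirmatory dose–response counterscreen on Bfl-1, used to check hits from a UBC13 polyubiquitin inhibitor campaign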
T7 sequence (Q07440 whole entry): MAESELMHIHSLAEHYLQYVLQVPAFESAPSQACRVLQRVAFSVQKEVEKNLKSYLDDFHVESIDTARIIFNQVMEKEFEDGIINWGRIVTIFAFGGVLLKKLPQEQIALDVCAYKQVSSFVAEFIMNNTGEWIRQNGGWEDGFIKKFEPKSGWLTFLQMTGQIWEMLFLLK

[6] = target: T5, Ubiquitin-conjugating enzyme E2 N; format: functional; remark: listed apart in the source
[7] = miR-122 activators in hepatoma reporter cells, dose response, cell-based, Huh7 psiCHECK-miR122, Renilla luciferase, cherry-picked (AID 651956); format: functional;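 further: huh7 hepatoma cells stably carrying a psiCHECK-2 miR-122 sensor plasmid; renilla luciferase signal reporting endogenous miR-122 activity after 48 h compound exposure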
Tumor necrosis factor = Tumor necrosis factor (Homo sapiens, UniProt P01375); assay: TNFa-triggered NF-kB activation inhibitors, SAR follow-up, cell-based, revised (AID 2337); format: functional
Chain of Tumor necrosis factor (P01375 whole entry): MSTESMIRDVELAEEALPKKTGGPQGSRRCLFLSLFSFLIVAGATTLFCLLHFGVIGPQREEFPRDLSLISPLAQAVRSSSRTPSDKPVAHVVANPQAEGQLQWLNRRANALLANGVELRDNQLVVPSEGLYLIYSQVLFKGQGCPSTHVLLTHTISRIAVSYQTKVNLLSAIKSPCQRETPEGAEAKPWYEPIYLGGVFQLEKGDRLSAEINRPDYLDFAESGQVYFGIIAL

HEK293 [8] = assay: cells; conditions: Homo sapiens
[9] = target: FAD-linked sulfhydryl oxidase ALR (Homo sapiens, UniProt P55789); assay: inhibitors of human ALR sulfhydryl oxidase, dose response, biochemical, H2O2 detection, luminescence, cherry-pick (AID 493248)
Chain of FAD-linked sulfhydryl oxidase ALR (P55789 whole entry): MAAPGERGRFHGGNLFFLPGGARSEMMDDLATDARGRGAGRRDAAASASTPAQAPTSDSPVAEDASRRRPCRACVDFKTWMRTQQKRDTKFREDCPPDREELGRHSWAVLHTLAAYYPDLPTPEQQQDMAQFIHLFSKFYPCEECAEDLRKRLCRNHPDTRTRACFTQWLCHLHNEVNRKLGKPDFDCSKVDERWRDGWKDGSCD

[10] = target: T8, Replicative DNA helicase DnaB (Mycobacterium tuberculosis, UniProt P9WMR3); assay: DnaB intein splicing inhibitors, dose response, biochemical, cell-free fluorescence (AID 449749); format: functional
T8 sequence (P9WMR3 whole entry): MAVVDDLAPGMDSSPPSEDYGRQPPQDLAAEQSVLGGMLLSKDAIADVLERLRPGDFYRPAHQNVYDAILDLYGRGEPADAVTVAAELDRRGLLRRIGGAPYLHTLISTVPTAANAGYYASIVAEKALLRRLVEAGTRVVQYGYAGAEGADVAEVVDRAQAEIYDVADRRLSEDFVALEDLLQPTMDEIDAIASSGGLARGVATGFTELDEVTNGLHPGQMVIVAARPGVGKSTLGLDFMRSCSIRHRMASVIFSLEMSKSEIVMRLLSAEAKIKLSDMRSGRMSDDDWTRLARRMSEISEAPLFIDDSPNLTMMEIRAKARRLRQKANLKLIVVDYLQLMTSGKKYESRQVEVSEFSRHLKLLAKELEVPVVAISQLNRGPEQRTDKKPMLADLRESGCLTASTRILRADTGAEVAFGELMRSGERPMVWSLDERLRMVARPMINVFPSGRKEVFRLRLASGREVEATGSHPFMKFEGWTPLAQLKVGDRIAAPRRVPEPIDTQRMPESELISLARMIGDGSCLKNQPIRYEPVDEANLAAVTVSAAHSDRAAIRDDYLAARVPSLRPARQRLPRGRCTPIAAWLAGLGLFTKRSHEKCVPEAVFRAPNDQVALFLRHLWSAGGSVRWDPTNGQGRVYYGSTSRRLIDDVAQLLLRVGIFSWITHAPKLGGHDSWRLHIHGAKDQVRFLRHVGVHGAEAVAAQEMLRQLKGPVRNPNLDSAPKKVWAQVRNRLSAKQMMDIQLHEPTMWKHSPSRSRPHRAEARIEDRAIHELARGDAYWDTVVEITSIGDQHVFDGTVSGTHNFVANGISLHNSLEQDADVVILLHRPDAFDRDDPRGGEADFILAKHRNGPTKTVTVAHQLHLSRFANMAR

HEK293 [11] = assay: inhibitors of LMP1-driven NF-kB reporter, dose response, cell-based, HEK293, luciferase, cherry-pick (AID 588343); format: functional; conditions: Homo sapiens
Protein RecA = target: T9, Protein RecA (Mycobacterium tuberculosis, UniProt P9WHJ3); assay: Fluorescence Cell-Free Homogeneous Dose Retest to Identify Inhibitors of RecA-Intein Splicing Activity. [Related pubchem assays (depositor defined):AID2097, AID2223, AID489010, AID492950]; format: functional
T9 sequence (P9WHJ3 whole entry): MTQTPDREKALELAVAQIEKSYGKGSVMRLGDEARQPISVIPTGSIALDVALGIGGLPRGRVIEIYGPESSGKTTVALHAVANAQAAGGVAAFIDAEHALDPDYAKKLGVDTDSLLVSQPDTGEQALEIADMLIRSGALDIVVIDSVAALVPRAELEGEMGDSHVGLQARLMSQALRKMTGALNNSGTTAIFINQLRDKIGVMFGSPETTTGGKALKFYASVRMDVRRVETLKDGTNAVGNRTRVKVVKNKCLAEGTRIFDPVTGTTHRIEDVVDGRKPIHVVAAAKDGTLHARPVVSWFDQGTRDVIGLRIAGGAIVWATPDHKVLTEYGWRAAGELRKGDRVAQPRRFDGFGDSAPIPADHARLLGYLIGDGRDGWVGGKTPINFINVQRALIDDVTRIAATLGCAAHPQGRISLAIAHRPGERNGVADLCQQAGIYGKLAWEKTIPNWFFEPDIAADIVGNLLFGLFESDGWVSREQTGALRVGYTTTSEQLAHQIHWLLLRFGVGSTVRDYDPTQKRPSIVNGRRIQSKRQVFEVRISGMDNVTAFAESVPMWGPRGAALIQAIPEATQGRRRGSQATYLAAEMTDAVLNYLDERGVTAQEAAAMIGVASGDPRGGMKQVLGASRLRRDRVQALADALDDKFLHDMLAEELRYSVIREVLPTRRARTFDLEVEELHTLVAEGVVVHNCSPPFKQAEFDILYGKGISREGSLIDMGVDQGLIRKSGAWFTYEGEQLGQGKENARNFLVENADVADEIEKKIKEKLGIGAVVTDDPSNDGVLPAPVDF

Cc1cc(C)cc(NS(=O)(=O)c2ccc3c(c2)c(=O)n(C)c(=O)n3C)c1
AC50 [1]: 4.67 µM (active)
AC50 (A-375): 17.3 µM (active)

CCOC(=S)SCC(=O)O
AC50 (Cytochrome P450 2D6): inconclusive

CC(=O)c1c(C(C)=O)c(C)n(NC(=O)c2ccccc2Cl)c1C
AC50 (Cytochrome P450 2C9): inconclusive
AC50 (Cytochrome P450 2D6): inconclusive

COc1ccc(OC)c2nc(O)c(CCNS(=O)(=O)c3ccc(C)cc3)cc12
AC50 (Cytochrome P450 1A2): 12.6 µM (inconclusive)
AC50 (Cytochrome P450 2D6): inconclusive

CC(=O)N(\C=C/C=C/C=C1\Sc2ccccc2C1=O)c1ccccc1
AC50 [1]: 8 µM (active)
CC50 [2]: > 40 µM (active)
AC50 (A-375): 50.7 µM (active)
IC50 (Protein Tat): > 100 µM (active)

COc1cc(NC(=O)c2ccc3c(c2)C(=O)N(CCC(C)C)C3=O)c(C(=O)O)cc1OC
IC50 [3]: 7.04 µM (active)

C=CCc1ccccc1OCC(O)CN1CCN(CCN2C(=O)c3cccc4cccc(c34)C2=O)CC1 (configuration not stated)
IC50 [4]: 17.7 µM (active)
AC50 [5]: 9.3 µM (active)
IC50 (Bcl-2-related protein A1): > 20 µM (inactive)
IC50 [6]: 17.2 µM (active)
AC50 [7]: 8.26 µM (active)

CN(C)c1ccc(NC(=O)c2ccc(CN3CCCCC3)cc2)cc1
IC50 (Tumor necrosis factor): > 20 µM (inactive)
IC50 (HEK293 [8]): > 20 µM (inactive)

CC(C)(C)c1ccc(C(=O)O/N=C(\N)c2cccc([N+](=O)[O-])c2)cc1
IC50 (HEK293 [8]): > 20 µM (inactive)

Cc1cc(Sc2nnc(/N=C/N(C)C)s2)c2ccccc2n1
IC50 [4]: 11 µM (active)
AC50 [9]: 0.801 µM (active)
AC50 [10]: 39.8 µM (active)
AC50 (HEK293 [11]): 2.9 µM (active)
IC50 (Bcl-2-related protein A1): > 20 µM (inactive)
IC50 [6]: 8.88 µM (active)
EC50 (Protein RecA): 10.3 µM (active)
